We go through 18 molecules from patent US12344610B2, “APOL1 inhibitors and methods of use” (Maze Therapeutics, Inc., priority 2022, dated 2025).

Common to all, as to type: cell-based
Test [1] relates to HEK293 clonal cell line overexpressing APOL1 G1. Nature of the test: APOL1 G1 HEK293 cell rescue assay (Example B3). The following applies: geometric mean of at least 2 runs, † = single run, ¥ = concentration at 50% rescue estimated (no sigmoidal curve). The essentials:
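HEK293 clonal line overexpressing APOL1 G1; EC50 is half-maximal reversal of APOL1-induced cell death. Values are the geometric mean of ≥2 runs on separate days, each run the average of duplicate wells. Where no sigmoidal curve could be fitted, the concentration giving 50% rescue was estimated.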

For test [2], the system named is Trypanosoma brucei Lister 427 VSG221 with APOL1 G0 recombinant protein. Description: APOL1 G0 trypanosome cell rescue assay (Example B5). The following applies: geometric mean of at least 2 assay runs, † = single assay run. The essentials:
(§1)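 Compounds in duplicate 2-fold, 11-point series with 0.4% DMSO final. Next, tag-free mature APOL1 variant protein went in from a 2 μg/mL solution, then trypanosomes to 250 per well. Plates incubated 20 h humidified at 37° C, equilibrated to room temperature, and CellTiter-Glo added for luminescence.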

Test [3] concerns Trypanosoma brucei Lister 427 VSG221 with APOL1 G1 recombinant protein. Description: APOL1 G1 trypanosome cell rescue assay (Example B5). The following applies: geometric mean of at least 2 assay runs, † = single assay run. The essentials: as §1
The test system of test [4] is Trypanosoma brucei Lister 427 VSG221 with APOL1 G2 recombinant protein. Nature of the test: APOL1 G2 trypanosome cell rescue assay (Example B5). The following applies: geometric mean of at least 2 assay runs, † = single assay run. The essentials: as §1
Setting [5] is: Homo sapiens, HEK293, HEK293 clonal line overexpressing APOL1 G1.
[6] abbreviates: Trypanosoma brucei, 20 h, read-out: APOL1 G0 Trypanosome Rescue EC50, Trypanosoma brucei Lister 427 VSG221 with APOL1 G0 recombinant protein, 20 hours, CellTiter-Glo.
Setting [7] is: Trypanosoma brucei, 20 h, read-out: APOL1 G1 Trypanosome Rescue EC50, Trypanosoma brucei Lister 427 VSG221 with APOL1 G1 recombinant protein, 20 hours, CellTiter-Glo.
Where [8] appears, read: Trypanosoma brucei, 20 h, read-out: APOL1 G2 Trypanosome Rescue EC50, Trypanosoma brucei Lister 427 VSG221 with APOL1 G2 recombinant protein, 20 hours, CellTiter-Glo.
Setting [9] is: HEK293 clonal line overexpressing APOL1 G1.
The mark [10] stands for this setting: read-out: APOL1 G0 Trypanosome Rescue EC50, Trypanosoma brucei Lister 427 VSG221 with APOL1 G0 recombinant protein, 20 hours, CellTiter-Glo.
Where [11] appears, read: read-out: APOL1 G1 Trypanosome Rescue EC50, Trypanosoma brucei Lister 427 VSG221 with APOL1 G1 recombinant protein, 20 hours, CellTiter-Glo.
Where [12] appears, read: read-out: APOL1 G2 Trypanosome Rescue EC50, Trypanosoma brucei Lister 427 VSG221 with APOL1 G2 recombinant protein, 20 hours, CellTiter-Glo.

SMILES strings stand for the structures. Like-named read-outs stand apart in the source and are kept apart here. Bounds are passed on as bounds.

For the molecule `CC(c1ccc(OCCN2CCC3(CC2)C(=O)Nc2ccc(Cl)cc23)cc1)S(C)(=O)=O` (single isomer, unassigned) [Compound 39, 5-chloro-1′-(2-{4-[(1S) or (1R)-1-methanesulfonylethyl]phenoxy}ethyl)-1,2-dihydrospiro[indole-3,4′-piperidin]-2-one], the half-maximal effective concentration (EC50) (commonly the concentration giving half of the maximal effect) in test [1] (setting [5]) was above 247 nM; in test [2] (setting [6]), 156 nM; in test [3] (setting [7]), 206 nM; in test [4] (setting [8]) it was 53 nM.

With `O=C1CCc2cc(OCCN3CCC4(CC3)C(=O)Nc3ccc(Cl)cc34)cnc2N1[C@H]1C[C@@H](CO)C1` (single isomer, unassigned) [Compound 319, 5-chloro-1′-[2-({7-oxo-8-[(cis)-3-(hydroxymethyl)cyclobutyl]-5,6,7,8-tetrahydro-1,8-naphthyridin-3-yl}oxy)ethyl]-1,2-dihydrospiro[indole-3,4′-piperidin]-2-one], the EC50 in test [1] (setting [5]) was 118 nM; in test [2] (setting [6]) it was 69.7 nM; in test [3] (setting [7]) it was 81.1 nM; in test [4] (setting [8]) it was 27 nM.

For the molecule `CC[C@]1(O)C[C@@H](N2C(=O)CCc3cc(OCCN4CCC5(CC4)C(=O)Nc4ccc(Cl)cc45)cnc32)C1` (single isomer, unassigned) [Compound 321, 5-chloro-1′-[2-({7-oxo-8-[(cis)-3-ethyl-3-hydroxycyclobutyl]-5,6,7,8-tetrahydro-1,8-naphthyridin-3-yl}oxy)ethyl]-1,2-dihydrospiro[indole-3,4′-piperidin]-2-one], the EC50 in test [1] (setting [5]) is 47.7 nM; in test [2] (setting [6]), 39.6 nM; in test [3] (setting [7]), 45.9 nM; in test [4] (setting [8]), 14.3 nM.

As for `CC1(O)CC(CN2C(=O)CCc3cc(OCCN4CCC5(CC4)C(=O)Nc4ccc(Cl)cc45)cnc32)C1` (single isomer, unassigned) [Compound 322, 5-chloro-1′-{2-[(7-oxo-8-{[(trans) or (cis)-3-hydroxy-3-methylcyclobutyl]methyl}-5,6,7,8-tetrahydro-1,8-naphthyridin-3-yl)oxy]ethyl}-1,2-dihydrospiro[indole-3,4′-piperidin]-2-one], the EC50 in test [1] (setting [9]) was 38.6 nM; in test [2] (setting [10]) it was 29.3 nM; in test [3] (setting [11]) it was 34.9 nM; in test [4] (setting [12]) it was 11.7 nM.

For the molecule `C[C@]1(O)C[C@@H](n2ncc3cc(OCCN4CCC5(CC4)C(=O)Nc4ccc(Cl)cc45)cnc32)C1` (single isomer, unassigned) [Compound 357, 5-chloro-1′-[2-({1-[(cis)-3-hydroxy-3-methylcyclobutyl]-1H-pyrazolo[3,4-b]pyridin-5-yl}oxy)ethyl]-1,2-dihydrospiro[indole-3,4′-piperidin]-2-one], the EC50 in test [1] (setting [5]) is 35.3 nM; in test [2] (setting [6]), 61.2 nM; in test [3] (setting [7]), 91.6 nM; in test [4] (setting [8]), 28.1 nM.

Turning to `CC1(O)CC(c2ncc(OCCN3CCC4(CC3)C(=O)Nc3ccc(Cl)cc34)cn2)C1` (single isomer, unassigned) [Compound 393, 5-chloro-1′-[2-({2-[(cis) or (trans)-3-hydroxy-3-methylcyclobutyl]pyrimidin-5-yl}oxy)ethyl]-1,2-dihydrospiro[indole-3,4′-piperidin]-2-one], the EC50 was 159 nM in test [1] (setting [9]), 300 nM in test [2] (setting [10]), 360 nM in test [3] (setting [11]) and 120 nM in test [4] (setting [12]).

As to `C[C@]1(O)C[C@H](n2ncc3cc(OCCN4CCC5(CC4)C(=O)Nc4ccc(Cl)cc45)cnc32)C1` (single isomer, unassigned) [Compound 408, 5-chloro-1′-[2-({1-[(trans)-3-hydroxy-3-methylcyclobutyl]-1H-pyrazolo[3,4-b]pyridin-5-yl}oxy)ethyl]-1,2-dihydrospiro[indole-3,4′-piperidin]-2-one], the EC50 is 56 nM in test [1] (setting [5]), 84.8 nM in test [2] (setting [6]), 121 nM in test [3] (setting [7]) and 43.6 nM in test [4] (setting [8]).

For the molecule `CC(C)(CO)c1ncc(OCCN2CCC3(CC2)C(=O)Nc2ccc(Cl)cc23)cn1` [Compound 334, 5-chloro-1′-(2-{[2-(1-hydroxy-2-methylpropan-2-yl)pyrimidin-5-yl]oxy}ethyl)-1,2-dihydrospiro[indole-3,4′-piperidin]-2-one], the concentration giving a half-maximal response (EC50) in test [1] (setting [5]) was 269 nM.

Turning to `C[C@]1(O)C[C@@H](n2ccc3cc(OCCN4CCC5(CC4)C(=O)Nc4ccc(C(F)F)cc45)cnc32)C1` [Compound 350, 5-(difluoromethyl)-1′-[2-({1-[(cis)-3-hydroxy-3-methylcyclobutyl]-1H-pyrrolo[2,3-b]pyridin-5-yl}oxy)ethyl]-1,2-dihydrospiro[indole-3,4′-piperidin]-2-one], the EC50 in test [1] (setting [5]) was 43.9 nM.

Regarding `C[C@]1(O)C[C@@H](n2c(=O)oc3cc(OCCN4CCC5(CC4)C(=O)Nc4ccc(Cl)cc45)cnc32)C1` [Compound 394, 5-chloro-1′-[2-({2-oxo-3-[(cis)-3-hydroxy-3-methylcyclobutyl]-2H,3H-[1,3]oxazolo[4,5-b]pyridin-6-yl}oxy)ethyl]-1,2-dihydrospiro[indole-3,4′-piperidin]-2-one], in test [1] (setting [5]), the concentration for a half-maximal effect (EC50) was 77.7 nM.

On to `O=C1Nc2ccc(Cl)cc2C12CCN(CCOc1cnc(N3CC4(CC(O)C4)C3)nc1)CC2` [Compound 396, 5-chloro-1′-{2-[(2-{6-hydroxy-2-azaspiro[3.3]heptan-2-yl}pyrimidin-5-yl)oxy]ethyl}-1,2-dihydrospiro[indole-3,4′-piperidin]-2-one], for which the EC50 in test [1] (setting [5]) was 85 nM.

Regarding `CC(CO)(c1ncc(OCCN2CCC3(CC2)C(=O)Nc2ccc(Cl)cc23)cc1C(F)(F)F)S(C)(=O)=O` (stereo not drawn) [Compound 401, 5-chloro-1′-(2-{[6-(1-hydroxy-2-methanesulfonylpropan-2-yl)-5-(trifluoromethyl)pyridin-3-yl]oxy}ethyl)-1,2-dihydrospiro[indole-3,4′-piperidin]-2-one], the EC50 in test [1] (setting [5]) was 68.2 nM.

With `CC(C)(O)c1ncc(OCCN2CCC3(CC2)C(=O)Nc2ccc(C#N)cc23)cc1C(F)(F)F` [Compound 411, 1′-(2-{[6-(2-hydroxypropan-2-yl)-5-(trifluoromethyl)pyridin-3-yl]oxy}ethyl)-2-oxo-1,2-dihydrospiro[indole-3,4′-piperidine]-5-carbonitrile], the EC50 in test [1] (setting [5]) was 55.6 nM.

Turning to `C[C@]1(O)C[C@@H](n2cnc3cc(OCCN4CCC5(CC4)C(=O)Nc4ccc(C#N)cc45)cc(C(F)(F)F)c32)C1` [Compound 433, 1′-(2-((1-((cis)-3-hydroxy-3-methylcyclobutyl)-7-(trifluoromethyl)-1H-benzo[d]imidazol-5-yl)oxy)ethyl)-2-oxospiro[indoline-3,4′-piperidine]-5-carbonitrile], in test [1] (setting [5]), the concentration for a half-maximal effect (EC50) was 29.6 nM.

On to `C[C@]1(O)C[C@@H](n2nnc3cc(OCCN4CCC5(CC4)C(=O)Nc4ccc(Cl)cc45)cc(C(F)(F)F)c32)C1` [Compound 434, 5-chloro-1′-[2-({1-[(cis)-3-hydroxy-3-methylcyclobutyl]-7-(trifluoromethyl)-1H-1,2,3-benzotriazol-5-yl}oxy)ethyl]-1,2-dihydrospiro[indole-3,4′-piperidin]-2-one], for which the EC50 in test [1] (setting [5]) was 14.8 nM.

For `Cc1nc2cc(OCCN3CCC4(CC3)C(=O)Nc3ccc(Cl)cc34)cc(C(F)(F)F)c2n1[C@H]1C[C@@](C)(O)C1` [Compound 442, 5-chloro-1′-[2-({2-methyl-1-[(cis)-3-hydroxy-3-methylcyclobutyl]-7-(trifluoromethyl)-1H-1,3-benzodiazol-5-yl}oxy)ethyl]-1,2-dihydrospiro[indole-3,4′-piperidin]-2-one], the EC50 in test [1] (setting [5]) is 15.6 nM.

Regarding `Cc1nc2cc(OCCN3CCC4(CC3)C(=O)Nc3ccc(C#N)cc34)cc(C(F)(F)F)c2n1[C@H]1C[C@@](C)(O)C1` [Compound 443, 1′-[2-({2-methyl-1-[(cis)-3-hydroxy-3-methylcyclobutyl]-7-(trifluoromethyl)-1H-1,3-benzodiazol-5-yl}oxy)ethyl]-2-oxo-1,2-dihydrospiro[indole-3,4′-piperidine]-5-carbonitrile], the EC50 in test [1] (setting [5]) was 30.8 nM.

As for `C[C@]1(O)C[C@@H](n2cnc3cc(OCCN4CCC5(CC4)C(=O)Nc4ccc(C(F)F)cc45)cc(C(F)(F)F)c32)C1` [Compound 450, 5-(difluoromethyl)-1′-[2-({1-[(cis)-3-hydroxy-3-methylcyclobutyl]-7-(trifluoromethyl)-1H-1,3-benzodiazol-5-yl}oxy)ethyl]-1,2-dihydrospiro[indole-3,4′-piperidin]-2-one], the concentration for a half-maximal effect (EC50) in test [1] (setting [5]) is 14.9 nM.
